Laboratory results as given in ChEMBL document CHEMBL5614372, “Advances in dual-targeting inhibitors of HDAC6 for cancer treatment” (Eur J Med Chem, 2024).
pIC50, pKi: −log10 of the molar value. Each block holds one compound with its values, some of them ahead of it.

What was measured:
[1] = Inhibition of HSP90 (unknown origin) by fluorescence polarization assay; parameters: species or system Homo sapiens
Histone deacetylase 3 [2] = biological target: T1, Histone deacetylase 3 (Homo sapiens, UniProt O15379); assay: Inhibition of HDAC3 (unknown origin)
T1 sequence (O15379 whole entry): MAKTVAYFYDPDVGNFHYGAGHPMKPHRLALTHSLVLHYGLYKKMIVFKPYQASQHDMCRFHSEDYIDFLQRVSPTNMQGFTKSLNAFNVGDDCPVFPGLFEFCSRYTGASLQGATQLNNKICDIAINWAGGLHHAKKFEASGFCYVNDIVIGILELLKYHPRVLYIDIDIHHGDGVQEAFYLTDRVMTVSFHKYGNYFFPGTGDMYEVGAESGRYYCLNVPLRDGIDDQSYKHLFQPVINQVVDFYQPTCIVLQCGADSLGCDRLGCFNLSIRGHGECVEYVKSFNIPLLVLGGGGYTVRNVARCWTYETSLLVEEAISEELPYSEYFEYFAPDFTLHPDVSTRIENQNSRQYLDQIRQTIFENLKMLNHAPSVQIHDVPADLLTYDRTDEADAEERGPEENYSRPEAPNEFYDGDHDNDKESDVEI

[3] = biological target: Serine/threonine-protein kinase PAK 2 (Homo sapiens, UniProt Q13177); assay: Inhibition of PAK2 (unknown origin)
Histone deacetylase 8 = biological target: T2, Histone deacetylase 8 (Homo sapiens, UniProt Q9BY41); assay: Inhibition of HDAC8 (unknown origin)
T2 sequence (Q9BY41 whole entry): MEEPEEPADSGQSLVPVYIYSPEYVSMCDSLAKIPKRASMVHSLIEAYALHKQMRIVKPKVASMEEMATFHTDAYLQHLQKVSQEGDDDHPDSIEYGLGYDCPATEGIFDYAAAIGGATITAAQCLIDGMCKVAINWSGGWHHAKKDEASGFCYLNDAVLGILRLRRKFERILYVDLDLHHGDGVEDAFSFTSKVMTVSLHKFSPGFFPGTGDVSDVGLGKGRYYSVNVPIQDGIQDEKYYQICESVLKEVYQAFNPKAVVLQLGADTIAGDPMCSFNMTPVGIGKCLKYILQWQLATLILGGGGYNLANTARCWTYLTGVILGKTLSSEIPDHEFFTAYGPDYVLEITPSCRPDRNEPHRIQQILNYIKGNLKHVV

Histone deacetylase 1 = Histone deacetylase 1 (Homo sapiens, UniProt Q13547); assay: Inhibition of HDAC1 (unknown origin)
Chain of Histone deacetylase 1 (Q13547 whole entry): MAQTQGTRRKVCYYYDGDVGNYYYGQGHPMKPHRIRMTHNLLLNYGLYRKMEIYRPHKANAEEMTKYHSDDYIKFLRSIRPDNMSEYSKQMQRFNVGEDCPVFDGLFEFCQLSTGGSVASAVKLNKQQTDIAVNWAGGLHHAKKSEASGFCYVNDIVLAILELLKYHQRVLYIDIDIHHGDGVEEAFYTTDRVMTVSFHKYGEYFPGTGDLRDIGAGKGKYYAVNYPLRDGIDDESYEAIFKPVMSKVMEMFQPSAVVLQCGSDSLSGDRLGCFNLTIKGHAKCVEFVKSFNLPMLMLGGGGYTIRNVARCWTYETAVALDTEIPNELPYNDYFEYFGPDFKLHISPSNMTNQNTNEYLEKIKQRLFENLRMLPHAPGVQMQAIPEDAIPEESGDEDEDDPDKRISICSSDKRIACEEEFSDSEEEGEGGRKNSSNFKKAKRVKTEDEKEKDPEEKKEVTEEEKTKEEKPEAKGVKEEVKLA

[4] = biological target: T3, Protein deacetylase HDAC6 (Homo sapiens, UniProt Q9UBN7); assay: Inhibition of HDAC6 (unknown origin)
T3 sequence (Q9UBN7 whole entry): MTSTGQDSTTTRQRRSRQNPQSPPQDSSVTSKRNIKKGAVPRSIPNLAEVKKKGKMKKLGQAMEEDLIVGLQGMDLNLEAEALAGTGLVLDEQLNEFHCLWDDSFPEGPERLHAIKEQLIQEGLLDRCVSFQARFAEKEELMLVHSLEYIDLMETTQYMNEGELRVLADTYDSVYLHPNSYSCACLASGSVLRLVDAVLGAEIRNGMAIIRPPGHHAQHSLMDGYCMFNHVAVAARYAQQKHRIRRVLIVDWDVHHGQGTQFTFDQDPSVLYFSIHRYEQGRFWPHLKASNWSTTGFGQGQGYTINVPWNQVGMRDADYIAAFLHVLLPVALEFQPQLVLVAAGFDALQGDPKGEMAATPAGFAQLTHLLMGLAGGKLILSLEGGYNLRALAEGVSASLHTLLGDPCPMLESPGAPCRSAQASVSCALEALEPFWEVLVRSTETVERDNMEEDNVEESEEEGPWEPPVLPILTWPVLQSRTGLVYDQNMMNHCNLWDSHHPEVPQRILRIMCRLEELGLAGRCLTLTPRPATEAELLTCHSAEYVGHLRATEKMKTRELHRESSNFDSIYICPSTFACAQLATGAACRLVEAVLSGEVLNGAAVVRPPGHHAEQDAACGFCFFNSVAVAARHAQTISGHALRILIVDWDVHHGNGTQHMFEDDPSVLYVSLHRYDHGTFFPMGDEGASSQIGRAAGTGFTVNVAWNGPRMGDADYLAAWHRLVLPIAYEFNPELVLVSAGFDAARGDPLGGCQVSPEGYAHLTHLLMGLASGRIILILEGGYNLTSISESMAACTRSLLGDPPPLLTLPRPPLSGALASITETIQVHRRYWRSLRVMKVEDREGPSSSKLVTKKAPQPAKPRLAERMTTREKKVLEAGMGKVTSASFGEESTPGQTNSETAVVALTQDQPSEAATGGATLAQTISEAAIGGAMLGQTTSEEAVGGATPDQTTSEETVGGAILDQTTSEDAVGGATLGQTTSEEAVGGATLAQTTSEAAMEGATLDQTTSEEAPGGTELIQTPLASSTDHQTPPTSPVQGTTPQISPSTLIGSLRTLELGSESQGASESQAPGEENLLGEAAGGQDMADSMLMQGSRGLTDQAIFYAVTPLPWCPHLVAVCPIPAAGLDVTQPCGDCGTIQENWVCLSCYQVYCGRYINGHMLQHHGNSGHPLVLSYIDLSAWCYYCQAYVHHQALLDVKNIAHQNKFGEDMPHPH

[5] = biological target: Serine/threonine-protein kinase PAK 1 (Homo sapiens, UniProt Q13153); assay: Inhibition of PAK1 (unknown origin)
[6] = biological target: Serine/threonine-protein kinase PAK 3 (Homo sapiens, UniProt O75914); assay: Inhibition of PAK3 (unknown origin)
Histone deacetylase 2 = Histone deacetylase 2 (Homo sapiens, UniProt Q92769); assay: Inhibition of HDAC2 (unknown origin)
Chain of Histone deacetylase 2 (Q92769 whole entry): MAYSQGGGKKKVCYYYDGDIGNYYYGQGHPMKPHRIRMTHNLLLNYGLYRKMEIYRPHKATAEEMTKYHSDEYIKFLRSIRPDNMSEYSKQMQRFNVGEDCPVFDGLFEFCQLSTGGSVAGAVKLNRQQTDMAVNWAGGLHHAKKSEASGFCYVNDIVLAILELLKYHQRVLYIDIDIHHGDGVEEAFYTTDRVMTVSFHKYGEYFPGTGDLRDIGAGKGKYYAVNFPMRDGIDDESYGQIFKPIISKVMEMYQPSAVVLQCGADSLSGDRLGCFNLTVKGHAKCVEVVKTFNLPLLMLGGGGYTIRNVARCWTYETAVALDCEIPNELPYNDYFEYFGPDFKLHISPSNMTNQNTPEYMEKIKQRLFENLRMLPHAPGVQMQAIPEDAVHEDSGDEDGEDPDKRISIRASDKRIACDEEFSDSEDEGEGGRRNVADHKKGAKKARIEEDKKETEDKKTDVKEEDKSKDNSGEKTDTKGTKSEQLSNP

[7] = biological target: cGMP-specific 3',5'-cyclic phosphodiesterase (Homo sapiens, UniProt O76074); assay: Inhibition of PDE5A (unknown origin)
[8] = biological target: High affinity cGMP-specific 3',5'-cyclic phosphodiesterase 9A (Homo sapiens, UniProt O76083); assay: Inhibition of PDE9A (unknown origin)
Histone deacetylase 3 [9] = biological target: T1, Histone deacetylase 3; assay: Inhibition of human recombinant HDAC3 using fluorogenic HDAC substrate incubated for 20 mins by fluorescence based assay
[10] = biological target: Serine/threonine-protein kinase B-raf (Homo sapiens, UniProt P15056); assay: Inhibition of wild type B-RAF (unknown origin)
Histone deacetylase 7 [11] = biological target: T4, Histone deacetylase 7 (Homo sapiens, UniProt Q8WUI4); assay: Inhibition of human recombinant HDAC7 using fluorogenic HDAC substrate incubated for 20 mins by fluorescence based assay
T4 sequence (Q8WUI4 whole entry): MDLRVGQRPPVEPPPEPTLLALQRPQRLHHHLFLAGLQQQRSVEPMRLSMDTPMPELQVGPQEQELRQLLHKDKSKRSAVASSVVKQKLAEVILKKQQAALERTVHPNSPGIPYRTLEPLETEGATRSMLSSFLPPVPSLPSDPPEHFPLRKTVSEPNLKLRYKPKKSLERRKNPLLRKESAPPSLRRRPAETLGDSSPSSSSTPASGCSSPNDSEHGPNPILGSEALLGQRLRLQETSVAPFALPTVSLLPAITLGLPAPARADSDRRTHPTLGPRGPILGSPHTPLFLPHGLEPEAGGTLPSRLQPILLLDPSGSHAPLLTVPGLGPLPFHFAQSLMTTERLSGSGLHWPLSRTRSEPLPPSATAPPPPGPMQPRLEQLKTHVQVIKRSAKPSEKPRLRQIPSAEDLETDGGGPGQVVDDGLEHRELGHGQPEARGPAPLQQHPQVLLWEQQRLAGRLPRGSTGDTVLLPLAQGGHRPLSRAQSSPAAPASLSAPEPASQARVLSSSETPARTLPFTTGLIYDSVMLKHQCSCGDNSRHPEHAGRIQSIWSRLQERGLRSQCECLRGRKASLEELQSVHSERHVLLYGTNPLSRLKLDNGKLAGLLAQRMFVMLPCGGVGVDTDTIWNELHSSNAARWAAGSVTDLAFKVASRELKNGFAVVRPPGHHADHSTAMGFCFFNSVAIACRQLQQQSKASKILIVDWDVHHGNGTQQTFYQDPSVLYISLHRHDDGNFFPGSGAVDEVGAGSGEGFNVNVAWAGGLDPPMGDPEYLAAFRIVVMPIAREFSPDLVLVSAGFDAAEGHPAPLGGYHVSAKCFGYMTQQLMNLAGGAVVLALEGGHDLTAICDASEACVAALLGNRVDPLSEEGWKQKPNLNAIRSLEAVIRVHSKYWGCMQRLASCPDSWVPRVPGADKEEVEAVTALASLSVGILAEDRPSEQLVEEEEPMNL

[12] = biological target: T3, Protein deacetylase HDAC6; assay: Inhibition of human recombinant HDAC6 using fluorogenic HDAC substrate incubated for 20 mins by fluorescence based assay
Histone deacetylase 4 [13] = biological target: T5, Histone deacetylase 4 (Homo sapiens, UniProt P56524); assay: Inhibition of human recombinant HDAC4 using fluorogenic HDAC substrate incubated for 20 mins by fluorescence based assay
T5 sequence (P56524 whole entry): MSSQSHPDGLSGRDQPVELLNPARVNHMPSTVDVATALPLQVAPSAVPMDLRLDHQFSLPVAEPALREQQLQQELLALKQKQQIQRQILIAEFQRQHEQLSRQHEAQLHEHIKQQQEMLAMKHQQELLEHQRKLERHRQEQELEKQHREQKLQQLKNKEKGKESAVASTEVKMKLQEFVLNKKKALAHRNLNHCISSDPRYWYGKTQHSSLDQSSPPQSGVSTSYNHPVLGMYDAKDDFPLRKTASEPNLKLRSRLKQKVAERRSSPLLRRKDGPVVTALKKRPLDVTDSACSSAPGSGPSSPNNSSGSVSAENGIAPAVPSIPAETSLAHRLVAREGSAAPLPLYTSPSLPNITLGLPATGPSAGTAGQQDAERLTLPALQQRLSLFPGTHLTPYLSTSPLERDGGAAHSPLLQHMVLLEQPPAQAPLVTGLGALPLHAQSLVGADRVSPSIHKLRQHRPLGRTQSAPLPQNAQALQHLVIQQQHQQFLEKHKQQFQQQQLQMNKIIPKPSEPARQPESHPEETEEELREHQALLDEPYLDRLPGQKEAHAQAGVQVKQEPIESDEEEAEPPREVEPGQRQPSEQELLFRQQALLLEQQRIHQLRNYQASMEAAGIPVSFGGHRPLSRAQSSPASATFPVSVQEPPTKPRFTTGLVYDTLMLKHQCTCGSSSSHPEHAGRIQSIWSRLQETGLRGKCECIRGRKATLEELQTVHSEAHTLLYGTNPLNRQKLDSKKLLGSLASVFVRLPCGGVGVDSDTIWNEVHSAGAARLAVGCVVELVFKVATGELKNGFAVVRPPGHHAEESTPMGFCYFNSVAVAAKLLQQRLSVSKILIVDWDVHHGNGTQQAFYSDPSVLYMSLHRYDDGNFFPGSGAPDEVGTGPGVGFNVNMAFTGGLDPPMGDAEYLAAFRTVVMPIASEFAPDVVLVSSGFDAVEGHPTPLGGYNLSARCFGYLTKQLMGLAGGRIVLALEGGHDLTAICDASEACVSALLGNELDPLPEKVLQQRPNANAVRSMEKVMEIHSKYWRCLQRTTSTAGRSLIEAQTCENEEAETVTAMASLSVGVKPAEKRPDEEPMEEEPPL

Histone deacetylase 5 [14] = biological target: T6, Histone deacetylase 5 (Homo sapiens, UniProt Q9UQL6); assay: Inhibition of human recombinant HDAC5 using fluorogenic HDAC substrate incubated for 20 mins by fluorescence based assay
T6 sequence (Q9UQL6 whole entry): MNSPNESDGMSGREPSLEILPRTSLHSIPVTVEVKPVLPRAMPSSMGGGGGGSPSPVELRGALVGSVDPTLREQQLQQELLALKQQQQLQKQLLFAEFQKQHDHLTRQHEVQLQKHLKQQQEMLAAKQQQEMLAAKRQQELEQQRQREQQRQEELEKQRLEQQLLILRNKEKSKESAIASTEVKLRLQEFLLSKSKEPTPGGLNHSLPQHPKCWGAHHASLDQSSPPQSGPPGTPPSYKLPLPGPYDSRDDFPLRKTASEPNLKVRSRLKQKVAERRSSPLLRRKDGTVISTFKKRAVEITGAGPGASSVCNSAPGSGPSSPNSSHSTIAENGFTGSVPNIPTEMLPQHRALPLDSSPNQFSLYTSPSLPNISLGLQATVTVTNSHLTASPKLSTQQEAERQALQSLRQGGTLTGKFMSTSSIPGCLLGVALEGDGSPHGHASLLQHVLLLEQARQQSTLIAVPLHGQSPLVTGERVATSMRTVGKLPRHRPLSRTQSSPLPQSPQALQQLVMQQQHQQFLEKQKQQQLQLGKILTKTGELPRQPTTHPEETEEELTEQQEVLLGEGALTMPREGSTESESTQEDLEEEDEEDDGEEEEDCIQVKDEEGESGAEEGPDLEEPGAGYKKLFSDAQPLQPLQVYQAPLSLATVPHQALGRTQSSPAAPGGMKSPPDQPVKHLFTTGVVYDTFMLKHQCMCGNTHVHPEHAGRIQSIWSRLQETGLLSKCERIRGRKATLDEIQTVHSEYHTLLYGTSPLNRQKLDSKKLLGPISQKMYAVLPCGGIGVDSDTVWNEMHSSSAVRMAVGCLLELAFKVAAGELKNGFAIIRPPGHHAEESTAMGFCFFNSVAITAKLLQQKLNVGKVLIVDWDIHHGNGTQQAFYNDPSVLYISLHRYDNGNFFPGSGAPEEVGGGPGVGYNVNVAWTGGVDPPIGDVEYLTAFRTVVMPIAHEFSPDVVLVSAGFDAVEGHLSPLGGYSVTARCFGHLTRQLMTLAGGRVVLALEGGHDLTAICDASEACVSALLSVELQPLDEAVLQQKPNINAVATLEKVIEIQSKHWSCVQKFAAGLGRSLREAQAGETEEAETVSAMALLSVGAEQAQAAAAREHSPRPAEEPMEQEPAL

Histone deacetylase 9 = Histone deacetylase 9 (Homo sapiens, UniProt Q9UKV0); assay: Inhibition of HDAC9 (unknown origin)
Histone deacetylase 7 [15] = biological target: T4, Histone deacetylase 7; assay: Inhibition of HDAC7 (unknown origin)
[16] = biological target: Glutamate [NMDA] receptor; assay: Binding affinity to NMDA receptor (unknown origin) assessed as inhibition constant; assay type: protein-complex assay, Homo sapiens
[17] = biological target: Glutamate [NMDA] receptor (Homo sapiens) (UniProt Q05586+Q12879+Q13224+O15399+O60391+Q14957+Q8TCU5); assay: Inhibition of NMDA receptor (unknown origin) at 10 uM relative to control; assay type: protein-complex assay
Histone deacetylase 4 [18] = biological target: T5, Histone deacetylase 4; assay: Inhibition of HDAC4 (unknown origin)
Histone deacetylase 5 [19] = biological target: T6, Histone deacetylase 5; assay: Inhibition of HDAC5 (unknown origin)
[20] = biological target: Steroid 17-alpha-hydroxylase/17,20 lyase (Homo sapiens, UniProt P05093); assay: Inhibition of CYP17A1 (unknown origin); assay type: ADME
A549 = assay: Antitumor activity against human A549 cells xenografted in BALB/c nude mouse assessed as inhibition of tumor growth at 20 mg/kg, ip administered once daily for 21 days relative to control; assay type: functional; parameters: scale not given: the % may be the effect or the level left; settings: time 21 day
[21] = biological target: T3, Protein deacetylase HDAC6; assay: Inhibition of HDAC6 (unknown origin) extracted from baculovirus infected Sf9 insect cells using fluorescent peptide p53 (379 to 382 residues) RHKK(Ac)AMC as substrate by fluorescence based analysis
[22] = biological target: ALK tyrosine kinase receptor (Homo sapiens, UniProt Q9UM73); assay: Inhibition of ALK (unknown origin) using poly[Glu:Tyr] (4:1) as substrate incubated for 2 hrs by [gamma-33P]ATP assay
[23] = biological target: Phosphatidylinositol 4,5-bisphosphate 3-kinase catalytic subunit beta isoform (Homo sapiens, UniProt P42338); assay: Inhibition of PI3Kbeta (unknown origin)
[24] = biological target: Phosphatidylinositol 4,5-bisphosphate 3-kinase catalytic subunit gamma isoform (Homo sapiens, UniProt P48736); assay: Inhibition of PI3Kgamma (unknown origin)
[25] = biological target: Phosphatidylinositol 4,5-bisphosphate 3-kinase catalytic subunit delta isoform (Homo sapiens, UniProt O00329); assay: Inhibition of PI3Kdelta (unknown origin)
Histone deacetylase 11 = Histone deacetylase 11 (Homo sapiens, UniProt Q96DB2); assay: Inhibition of HDAC11 (unknown origin)
Chain of Histone deacetylase 11 (Q96DB2 whole entry): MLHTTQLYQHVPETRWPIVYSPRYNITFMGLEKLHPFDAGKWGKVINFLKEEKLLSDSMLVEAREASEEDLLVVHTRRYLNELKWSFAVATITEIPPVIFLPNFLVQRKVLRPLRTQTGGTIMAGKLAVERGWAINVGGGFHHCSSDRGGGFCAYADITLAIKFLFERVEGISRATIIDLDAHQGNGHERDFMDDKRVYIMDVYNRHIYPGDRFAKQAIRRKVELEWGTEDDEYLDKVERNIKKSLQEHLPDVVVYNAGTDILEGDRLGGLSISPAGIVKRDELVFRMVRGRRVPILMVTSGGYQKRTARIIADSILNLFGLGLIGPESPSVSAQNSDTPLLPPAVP

[26] = biological target: Estrogen receptor (Homo sapiens) (UniProt P03372); assay: Binding affinity to ERalpha (unknown origin) assessed as relative binding affinity by fluorescence polarization assay relative to control
[27] = biological target: Estrogen receptor beta (Homo sapiens) (UniProt Q92731); assay: Binding affinity to ERbeta (unknown origin) assessed as relative binding affinity by fluorescence polarization assay relative to control

SMILES: CC(C)c1cc(C(=O)N(C)Cc2ccc(C(=O)NO)cc2)c(O)cc1O
pIC50 [1]: 7.21

SMILES: O=C(CCCCCn1c(=O)c(-c2ccc(Cl)cc2Cl)cc2cnc(NC3CC3)nc21)NO
pIC50 [3]: 6.72 | pIC50 (Histone deacetylase 8): 6.72 | pIC50 (Histone deacetylase 1): 6.63 | pIC50 [4]: 7.42 | pIC50 (Histone deacetylase 3 [2]): 6.75 | pIC50 [5]: 7.87 | pIC50 [6]: 6.36 | pIC50 (Histone deacetylase 2): 6.80

SMILES: C[C@H](c1nc2c(cnn2C2CCCC2)c(=O)[nH]1)N1CC(Oc2ncccn2)C1
pIC50 [8]: 7.49

SMILES: CC(C)(C)c1nc(-c2cccc(NS(=O)(=O)c3c(F)cccc3F)c2F)c(-c2ccnc(NCCCCCCC(=O)NO)n2)s1
pIC50 (Histone deacetylase 3 [9]): 6.03 | pIC50 [10]: 8.40 | pIC50 (Histone deacetylase 7 [11]): 5.52 | pIC50 [12]: 7.30 | pIC50 (Histone deacetylase 4 [13]): < 4.00 | pIC50 (Histone deacetylase 5 [14]): < 4.28

SMILES: O=C(NO)c1ccc(/C=N/NC(=O)c2cc(N3CCOCC3)nc(-c3cccc(O)c3)n2)cc1
pIC50 (Histone deacetylase 8): 7.17 | pIC50 [23]: 7.14 | pIC50 (Histone deacetylase 1): < 5.52 | pIC50 [24]: 5.89 | pIC50 [25]: 7.14 | pIC50 (Histone deacetylase 4 [18]): < 5.52 | pIC50 (Histone deacetylase 11): < 5.52

Further lines, with some results ahead:

pIC50 (Histone deacetylase 3 [2]): 5.60
SMILES: CCCCN(Cc1ccc(C(=O)NO)cc1)C(=O)CCCCn1cc(COc2cccc(Cc3cnc(NC(=O)CSc4nc(C)cc(C)n4)s3)c2)nn1

pIC50 (Histone deacetylase 1): 6.23 | pIC50 [4]: 7.40 | pIC50 [7]: < 5.00 | pIC50 [8]: 6.97 | pIC50 (Histone deacetylase 2): 5.45
SMILES: C[C@@H]1CN(Cc2ccc(C(=O)NO)cc2)C[C@H]1c1nc2c(cnn2C2CCOCC2)c(=O)[nH]1

pIC50 (Histone deacetylase 9): < 5.00 | pIC50 (Histone deacetylase 8): 6.21 | pIC50 (Histone deacetylase 1): 5.57 | pIC50 (Histone deacetylase 3 [2]): 5.66 | pIC50 (Histone deacetylase 7 [15]): < 5.00 | pKi [16]: 6.25 | inhibition [17]: 64.4% | pIC50 (Histone deacetylase 4 [18]): < 5.00 | pIC50 (Histone deacetylase 2): 5.10 | pIC50 (Histone deacetylase 5 [19]): < 5.00
SMILES: CC12CC3CC(C)(C1)CC(NC(=O)/C=C/c1ccc(C(=O)NO)cc1)(C3)C2

pIC50 (Histone deacetylase 8): < 5.00 | pIC50 [4]: 6.22 | pIC50 [20]: 6.55
SMILES: C[C@]12CC[C@H](OC(=O)CCCCCC(=O)NO)CC1=CCC1C2CC[C@]2(C)C(c3cccnc3)=CCC12 (some centres not stated)

pIC50 [21]: 5.99 | pIC50 [22]: 7.80
SMILES: CC(C)NC(=O)[C@H]1CC[C@@H](n2/c(=N/C(=O)c3ccccc3)[nH]c3cc(/C=C/C(=O)NO)ccc32)CC1
Activity (A549): 80%

RBA [26]: 0.005% | RBA [27]: 0.25%
SMILES: N#CC(C#N)=C1C=C(/C=C/c2ccc(O)c(NC(=O)CCCCCCC(=O)NO)c2)Oc2ccccc21
